Measured values: ChEMBL document CHEMBL1137963, “New oligomers of conduritol-F and muco-inositol. Synthesis and biological evaluation as glycosidase inhibitors” (Bioorg Med Chem Lett, 2004)
Activity calls are given as the source filed them. The rule behind the calls is not given here.

Tests used:
[1] = Concentration required to inhibit alpha-mannosidase; IA means inactive
[2] = target: T1, Alpha-galactosidase A (Homo sapiens) (UniProt P06280); assay: Concentration required to inhibit alpha-galactocosidase
T1 sequence (whole entry): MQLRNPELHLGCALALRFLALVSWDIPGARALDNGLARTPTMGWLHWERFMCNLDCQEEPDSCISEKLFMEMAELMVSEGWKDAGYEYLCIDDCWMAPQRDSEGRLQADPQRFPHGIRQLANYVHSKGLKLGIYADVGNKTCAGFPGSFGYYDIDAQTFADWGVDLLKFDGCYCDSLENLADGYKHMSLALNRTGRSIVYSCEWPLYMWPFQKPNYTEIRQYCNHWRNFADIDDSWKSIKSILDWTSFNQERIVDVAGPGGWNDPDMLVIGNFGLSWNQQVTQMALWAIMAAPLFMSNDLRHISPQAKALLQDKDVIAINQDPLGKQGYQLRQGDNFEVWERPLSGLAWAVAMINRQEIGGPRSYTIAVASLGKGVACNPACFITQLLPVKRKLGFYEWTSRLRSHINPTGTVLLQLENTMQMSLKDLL

[3] = target: Beta-glucosidase A (Caldicellulosiruptor saccharolyticus) (UniProt P10482); assay: Concentration required to inhibit beta-glucosidase; IA means inactive
Sequence of Beta-glucosidase A (Caldicellulosiruptor saccharolyticus) (P10482 whole entry): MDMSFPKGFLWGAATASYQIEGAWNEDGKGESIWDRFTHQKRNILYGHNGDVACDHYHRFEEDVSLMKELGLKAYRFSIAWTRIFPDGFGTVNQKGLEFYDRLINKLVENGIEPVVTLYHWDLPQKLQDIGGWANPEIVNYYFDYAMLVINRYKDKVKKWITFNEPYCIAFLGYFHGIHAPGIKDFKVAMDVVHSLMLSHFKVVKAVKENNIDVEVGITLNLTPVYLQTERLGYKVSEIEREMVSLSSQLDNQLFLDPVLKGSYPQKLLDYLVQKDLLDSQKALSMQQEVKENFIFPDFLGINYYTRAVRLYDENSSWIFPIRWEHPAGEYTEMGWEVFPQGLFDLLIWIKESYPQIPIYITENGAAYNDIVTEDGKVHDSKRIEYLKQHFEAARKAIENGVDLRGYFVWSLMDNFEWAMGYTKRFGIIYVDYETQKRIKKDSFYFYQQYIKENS

[4] = target: T2, Beta-mannosidase (Rattus norvegicus) (UniProt Q4FZV0); assay: Concentration required to inhibit beta-mannosidase
T2 sequence (whole entry): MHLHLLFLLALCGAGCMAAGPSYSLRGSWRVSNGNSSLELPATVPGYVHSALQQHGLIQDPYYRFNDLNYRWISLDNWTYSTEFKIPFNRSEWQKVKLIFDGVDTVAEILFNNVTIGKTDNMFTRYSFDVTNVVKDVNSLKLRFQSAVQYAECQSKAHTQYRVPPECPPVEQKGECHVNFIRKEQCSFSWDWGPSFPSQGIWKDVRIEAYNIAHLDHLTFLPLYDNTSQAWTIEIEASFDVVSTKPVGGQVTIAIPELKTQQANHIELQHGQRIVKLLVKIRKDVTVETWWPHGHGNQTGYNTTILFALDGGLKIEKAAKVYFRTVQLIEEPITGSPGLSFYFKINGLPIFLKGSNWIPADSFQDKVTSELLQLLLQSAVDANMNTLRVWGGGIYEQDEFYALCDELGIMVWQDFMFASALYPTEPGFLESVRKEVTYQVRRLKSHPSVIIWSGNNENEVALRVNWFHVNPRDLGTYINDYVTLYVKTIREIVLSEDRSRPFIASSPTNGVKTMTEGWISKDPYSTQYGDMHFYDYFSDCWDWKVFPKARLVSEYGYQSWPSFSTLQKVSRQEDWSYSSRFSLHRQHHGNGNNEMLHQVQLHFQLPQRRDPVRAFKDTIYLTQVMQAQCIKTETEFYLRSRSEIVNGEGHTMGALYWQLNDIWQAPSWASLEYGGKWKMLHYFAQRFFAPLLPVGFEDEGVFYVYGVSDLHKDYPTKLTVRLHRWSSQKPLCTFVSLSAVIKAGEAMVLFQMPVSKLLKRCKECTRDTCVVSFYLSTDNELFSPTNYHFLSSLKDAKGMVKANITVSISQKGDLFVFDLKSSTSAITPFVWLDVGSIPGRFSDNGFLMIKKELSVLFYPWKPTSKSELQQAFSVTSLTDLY

[5] = target: Maltase-glucoamylase (Homo sapiens) (UniProt O43451); assay: Concentration required to inhibit alpha-glucosidase; IA means inactive
Sequence of Maltase-glucoamylase (Homo sapiens) (O43451 whole entry, looked up): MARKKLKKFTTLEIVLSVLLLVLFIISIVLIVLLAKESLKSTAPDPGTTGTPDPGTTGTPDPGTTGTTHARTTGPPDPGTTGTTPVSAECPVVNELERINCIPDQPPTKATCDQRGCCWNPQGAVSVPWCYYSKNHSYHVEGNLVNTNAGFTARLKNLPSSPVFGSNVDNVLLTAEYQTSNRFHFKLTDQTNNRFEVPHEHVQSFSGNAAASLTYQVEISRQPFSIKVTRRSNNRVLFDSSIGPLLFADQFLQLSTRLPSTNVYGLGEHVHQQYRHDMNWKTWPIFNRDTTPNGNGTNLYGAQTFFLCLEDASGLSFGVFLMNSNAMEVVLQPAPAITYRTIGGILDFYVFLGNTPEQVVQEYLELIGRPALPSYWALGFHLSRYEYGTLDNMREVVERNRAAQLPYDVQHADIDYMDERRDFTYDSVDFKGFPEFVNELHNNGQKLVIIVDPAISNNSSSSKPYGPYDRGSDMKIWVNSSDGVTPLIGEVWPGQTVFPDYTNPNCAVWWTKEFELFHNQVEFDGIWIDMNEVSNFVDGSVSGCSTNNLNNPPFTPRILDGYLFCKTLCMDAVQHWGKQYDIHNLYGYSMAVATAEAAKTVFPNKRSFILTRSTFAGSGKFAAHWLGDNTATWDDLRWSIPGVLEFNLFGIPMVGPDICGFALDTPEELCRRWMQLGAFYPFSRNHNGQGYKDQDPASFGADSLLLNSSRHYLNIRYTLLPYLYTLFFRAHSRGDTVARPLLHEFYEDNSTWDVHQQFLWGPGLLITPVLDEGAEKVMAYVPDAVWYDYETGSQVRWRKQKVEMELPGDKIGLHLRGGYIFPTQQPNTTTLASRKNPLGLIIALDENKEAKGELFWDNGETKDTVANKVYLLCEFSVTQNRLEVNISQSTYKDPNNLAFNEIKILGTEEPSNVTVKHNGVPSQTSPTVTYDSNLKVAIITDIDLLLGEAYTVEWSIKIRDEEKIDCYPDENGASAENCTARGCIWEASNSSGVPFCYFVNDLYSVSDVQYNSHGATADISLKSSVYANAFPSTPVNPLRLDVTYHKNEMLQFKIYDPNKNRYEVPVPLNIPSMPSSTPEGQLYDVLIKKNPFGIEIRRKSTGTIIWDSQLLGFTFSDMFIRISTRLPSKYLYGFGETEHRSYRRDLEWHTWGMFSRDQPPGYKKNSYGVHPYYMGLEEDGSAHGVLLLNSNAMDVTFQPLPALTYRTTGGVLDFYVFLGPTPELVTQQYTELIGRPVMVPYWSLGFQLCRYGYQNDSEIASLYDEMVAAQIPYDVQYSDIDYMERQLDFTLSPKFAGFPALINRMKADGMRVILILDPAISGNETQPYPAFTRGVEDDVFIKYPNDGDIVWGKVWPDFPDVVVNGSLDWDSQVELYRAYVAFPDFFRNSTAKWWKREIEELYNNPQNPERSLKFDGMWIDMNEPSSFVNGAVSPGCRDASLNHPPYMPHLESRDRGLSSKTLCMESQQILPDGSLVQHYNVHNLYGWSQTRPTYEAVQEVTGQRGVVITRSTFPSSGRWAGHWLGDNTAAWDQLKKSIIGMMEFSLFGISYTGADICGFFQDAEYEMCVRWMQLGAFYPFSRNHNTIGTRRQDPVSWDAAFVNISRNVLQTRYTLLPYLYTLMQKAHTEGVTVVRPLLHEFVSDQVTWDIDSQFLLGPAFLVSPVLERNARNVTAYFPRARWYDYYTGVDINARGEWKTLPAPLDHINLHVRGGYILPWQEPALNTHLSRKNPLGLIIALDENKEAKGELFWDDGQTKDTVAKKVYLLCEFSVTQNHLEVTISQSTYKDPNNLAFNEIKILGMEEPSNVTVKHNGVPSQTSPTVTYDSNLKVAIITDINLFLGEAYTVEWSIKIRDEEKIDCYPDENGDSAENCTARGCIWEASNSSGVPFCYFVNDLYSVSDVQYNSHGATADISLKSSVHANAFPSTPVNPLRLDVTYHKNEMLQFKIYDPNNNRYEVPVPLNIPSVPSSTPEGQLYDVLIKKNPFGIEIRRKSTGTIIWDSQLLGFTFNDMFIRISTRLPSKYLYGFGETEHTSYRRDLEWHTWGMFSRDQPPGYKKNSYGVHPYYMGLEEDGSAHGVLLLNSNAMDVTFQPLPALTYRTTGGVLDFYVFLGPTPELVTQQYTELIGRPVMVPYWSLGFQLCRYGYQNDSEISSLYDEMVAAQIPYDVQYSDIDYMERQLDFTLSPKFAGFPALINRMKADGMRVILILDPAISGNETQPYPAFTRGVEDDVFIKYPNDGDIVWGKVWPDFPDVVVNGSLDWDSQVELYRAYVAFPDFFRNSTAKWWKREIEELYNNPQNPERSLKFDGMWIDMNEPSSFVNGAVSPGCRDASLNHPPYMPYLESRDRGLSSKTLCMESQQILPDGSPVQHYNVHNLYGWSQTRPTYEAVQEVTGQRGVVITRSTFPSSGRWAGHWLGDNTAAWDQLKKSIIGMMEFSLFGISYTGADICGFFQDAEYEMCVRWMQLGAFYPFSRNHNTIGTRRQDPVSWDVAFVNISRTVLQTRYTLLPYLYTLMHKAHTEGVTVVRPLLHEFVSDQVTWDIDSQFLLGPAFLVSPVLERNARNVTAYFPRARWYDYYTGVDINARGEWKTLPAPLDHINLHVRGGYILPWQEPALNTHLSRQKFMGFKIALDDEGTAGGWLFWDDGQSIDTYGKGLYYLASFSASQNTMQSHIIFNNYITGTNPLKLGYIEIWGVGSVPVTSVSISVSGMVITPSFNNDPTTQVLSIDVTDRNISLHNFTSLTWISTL

[6] = target: T3, Beta-galactosidase (Homo sapiens) (UniProt P16278); assay: Concentration required to inhibit beta-galactosidase
T3 sequence (whole entry): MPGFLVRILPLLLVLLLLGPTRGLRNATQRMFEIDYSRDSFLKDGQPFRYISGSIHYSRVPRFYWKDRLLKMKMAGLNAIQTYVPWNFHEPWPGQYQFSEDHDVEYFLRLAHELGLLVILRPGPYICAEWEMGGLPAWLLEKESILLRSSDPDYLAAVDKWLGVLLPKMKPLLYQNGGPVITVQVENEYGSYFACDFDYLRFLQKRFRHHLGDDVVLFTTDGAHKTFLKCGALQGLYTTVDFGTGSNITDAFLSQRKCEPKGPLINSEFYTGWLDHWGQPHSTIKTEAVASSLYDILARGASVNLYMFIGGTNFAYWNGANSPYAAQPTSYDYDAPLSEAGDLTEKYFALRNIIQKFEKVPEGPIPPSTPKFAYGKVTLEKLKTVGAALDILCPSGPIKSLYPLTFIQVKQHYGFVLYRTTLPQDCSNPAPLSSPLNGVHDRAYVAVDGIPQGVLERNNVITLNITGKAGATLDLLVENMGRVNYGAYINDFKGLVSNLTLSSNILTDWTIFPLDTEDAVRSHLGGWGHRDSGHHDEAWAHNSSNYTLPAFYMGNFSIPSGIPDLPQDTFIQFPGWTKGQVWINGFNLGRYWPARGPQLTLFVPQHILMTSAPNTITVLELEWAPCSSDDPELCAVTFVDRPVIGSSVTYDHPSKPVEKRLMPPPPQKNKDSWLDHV

[7] = target: T1, Alpha-galactosidase A (Homo sapiens); assay: Concentration required to inhibit alpha-galactocosidase; IA means inactive
[8] = target: T2, Beta-mannosidase (Rattus norvegicus); assay: Concentration required to inhibit beta-mannosidase; IA means inactive
[9] = target: Maltase-glucoamylase (Homo sapiens) (UniProt O43451); assay: Concentration required to inhibit alpha-glucosidase
[10] = target: T3, Beta-galactosidase (Homo sapiens); assay: Concentration required to inhibit beta-galactosidase; IA means inactive

SMILES	Concentration [1]	Concentration [2]	Concentration [3]	Concentration [4]	Concentration [5]	Concentration [6]	Concentration [7]	Concentration [8]	Concentration [9]	Concentration [10]
O[C@H]1[C@H](O)[C@@H](O[C@H]2C=C[C@@H](O)[C@@H](O)[C@@H]2O)C=C[C@H]1O	inactive	275 µM	inactive	1.5 mM	inactive	250 µM				
O[C@@H]1[C@@H](O)[C@@H](O)[C@H](O[C@H]2[C@@H](O)[C@H](O)[C@@H](O)[C@@H](O)[C@@H]2O)[C@@H](O)[C@H]1O	inactive		inactive			600 µM	inactive	inactive	800 µM	
O[C@H]1[C@H](O)[C@@H](O)C=C[C@H]1O	inactive		inactive		inactive	600 µM	inactive	inactive		
O[C@H]1[C@H](O)[C@@H](O[C@H]2[C@H](O)[C@H](O)C=C[C@@H]2O)C=C[C@H]1O	inactive	850 µM	inactive			190 µM		inactive	60 µM	
O[C@H]1[C@H](O)[C@@H](O)[C@H](O)[C@@H](O)[C@H]1O	inactive		inactive		inactive		inactive	inactive		inactive
